From patent US10179816B2, “Pharmaceutical compositions comprising an antibody which binds the human anti-Müllerian hormone receptor type II” (LABORATOIRE FRANCAIS DU FRACTIONNEMENT DES BIOTECHNOLOGIES, priority 2011, dated 2019)
“And” between values parts separate entries of the source, which are not always exact repeats. Equal values may be shown once. “Also recorded” adds a separate entry of the source.

Legend:
[1] = test system: Cov434-AMHRII Asc1a5 tumour cells;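 also: control mice received NaCl solution, survival endpoint was euthanasia once tumour volume hit 2000 mm^3 or on ethical grounds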
Text: A solution of NaCl was used as the control.
(§1) The animals were sacrificed when the tumour volumes reached 2000 mm^3 or for ethical reasons. The curves of mean values and median values as well as the statistical analyses were stopped when 20% of the mice in the group were dead.

[2] = test system: Cov434-AMHRII Asc1a5 tumour cells (a cell line of human ovarian cancer); assay: Anti-tumour activity of 3C23K alone or with paclitaxel in Cov434-AMHRII Asc1a5 xenograft (tumour volume, T/C ratio, statistical analysis); details: for Kruskal-Wallis Test: contrast vs control; for Individual tumour volume: individual mice;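 as to all read-outs here: subcutaneous Cov434-AMHRII Asc1a5 xenografts in female Swiss nude mice, tumour volume from length×width×height/2 in mm^3, randomized D13, dosing from D14, 8 mice per group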
Experimental: Female Swiss nude mice (Harlan Laboratories) were injected subcutaneously (s.c.) with 7.10^6 cells of Cov434-AMHRII Asc1a5 (cell line of human ovarian cancer transfected with cDNA AMHRII) in Matrigel (1:1 ratio) under a volume of 150 μL on day 0 (D0).
The mice were randomized on D13, when the volume of the tumours was between 58 and 150 mm^3, and the treatments began on D14 (8 mice per group).
The tumours were usually measured twice weekly. Tumour volume (TV) was calculated using the following formula, in which the length corresponds to the largest of the tumour diameters, the width corresponds to the smallest of the tumour diameters and the tumour height: TV (mm^3)=(length×width×height)/2.
In addition, for each group, curves of tumour growth were plotted using the calculated mean tumour volumes or the median tumour volumes.
as §1
In one experiment with 8 mice per group, the curves and analyses were stopped when fewer than 7 values per group had been obtained (7 mice alive).
The statistical differences between the different groups were analysed by ANOVA comparison using the Statgraphics centurion XV software.
The ANOVA table breaks down the variance into two components: an inter-group component and an intra-group component. The ratio F is the ratio of the inter-group estimate to the intra-group estimate. When the P value of test F is greater than or equal to 0.05, there is no statistically significant difference between the mean values of the two groups, with a confidence level of 95%. P values less than 0.05 indicate a significant difference between the mean values of the two groups with a confidence level of 95%.
A Kruskal-Wallis test was also carried out. When the P value is greater than or equal to 0.05, there is no statistically significant difference between the median of the two groups, with a confidence level of 95%. P values less than 0.05 indicate a significant difference between the medians of the two groups with a confidence level of 95%.
The treatment is initiated on day 14 after injection.

[3] = test system: Cov434-AMHRII Asc1a5 (cell line of human ovarian cancer transfected with cDNA AMHRII); assay: Anti-tumour activity of 3C23K alone or with carboplatin in Cov434-AMHRII Asc1a5 xenograft (tumour volume, T/C ratio, statistical analysis); format: in vivo, female Swiss nude mouse; details: for Anti-tumour activity (in words): carboplatin study, comparator as stated in the sentence
Experimental: The 3C23K antibody was evaluated according to the following scheme: 2 times per week for 6 weeks, for a total of 12 injections at about 10 mg/kg/injection, said administration regimen being designated below as “Q3-4D12”. Another group of mice was treated with an irrelevant antibody LFB-R565, administered at about 10 mg/kg/injection, according to the regimen Q3-4D12.
Carboplatin was evaluated, at a sub-optimum dose, i.e. about 60 mg/kg/injection, according to the following scheme: once a week, for 4 weeks, said administration regimen being designated below as “Q7D4”.
Carboplatin was also evaluated in combination with the 3C23K antibody or with the irrelevant antibody LFB-R565. Carboplatin was administered at about 60 mg/kg/injection according to the Q7D4 regimen and the 3C23K antibody or the irrelevant antibody LFB-R565 at about 10 mg/kg/injection according to the regimen Q3-4D12.
The mice were randomized on D11, when the volume of the tumours was between 50 and 158 mm^3, and the treatments began on D13 (9 mice per group).
The tumours were usually measured twice weekly.
The curves of the individual volume of the tumours were plotted.
In one experiment with 9 mice per group, the curves and analyses were therefore stopped when fewer than 8 values per group had been obtained (8 mice alive).
A Kruskal-Wallis test was also carried out.

[4] = Body weight of the mice, carboplatin combination study; format: in vivo; details: for Individual body weight of the mice: one value per mouse
Text: Moreover, to identify whether the treatment has a toxic effect, the weight of the mice was monitored individually once a week.

[5] = Day 13, randomization, before treatment
[6] = D11, randomization, before treatment

CC(=O)O[C@H]1C(=O)[C@@]2(C)[C@H]([C@H](OC(=O)c3ccccc3)[C@]3(O)C[C@H](OC(=O)[C@H](O)[C@@H](NC(=O)c4ccccc4)c4ccccc4)C(C)=C1C3(C)C)[C@]1(OC(C)=O)CO[C@@H]1C[C@@H]2O [paclitaxel, reference compound]
Survival parameter: logrank test chi-squared ([1]; contrast vs control): 0.04 | Survival parameter Mean ([1]; group of 8 mice): 45 days | Survival parameter Median ([1]; group of 8 mice): 45 days | survival parameter ([1]; individual mice, experiment ended on day 83): 34 Days and 41 Days (2×) and 45 Days (2×) and 51 Days (2×) and 55 Days | Statistical analysis based on the survival parameter (in words) ([1]; mouse, in vivo): does not have an activity that is significantly different from that of the control | Kruskal-Wallis Test ([2]; D13): 0.04 | Kruskal-Wallis Test ([2]; D20): 0.47 | Statistical analysis of tumour volume (in words) ([2]; D20 to D41): does not have an activity that is significantly different from that of the control | Kruskal-Wallis Test ([2]; D24): 0.28 | Kruskal-Wallis Test ([2]; D27): 1.10 | Kruskal-Wallis Test ([2]; D31): 0.89 | Kruskal-Wallis Test ([2]; D35): 0.10 | Kruskal-Wallis Test ([2]; D41): 0.20 | Mean tumour volume [2, 5]: 97 mm^3 | Median tumour volume [2, 5]: 90 mm^3 | Individual tumour volume ([2]; Day 13): 126 mm3 and 117 mm3 and 98 mm3 and 83 mm3 (2×) and 66 mm3 and 144 mm3 and 58 mm3 | Mean tumour volume ([2]; Day 20): 226 mm^3 | Median tumour volume ([2]; Day 20): 228 mm^3 | Individual tumour volume ([2]; Day 20): 424 mm3 and 243 mm3 and 240 mm3 and 280 mm3 and 170 mm3 and 126 mm3 and 217 mm3 and 105 mm3 | Mean tumour volume ([2]; Day 24): 313 mm^3 | Median tumour volume ([2]; Day 24): 270 mm^3 | Individual tumour volume ([2]; Day 24): 756 mm3 and 257 mm3 and 356 mm3 and 284 mm3 and 380 mm3 and 180 mm3 (2×) and 110 mm3 | Median tumour volume ([2]; Day 27): 336 mm^3 | Individual tumour volume ([2]; Day 27): 896 mm3 and 325 mm3 and 386 mm3 and 255 mm3 and 560 mm3 and 347 mm3 and 270 mm3 and 198 mm3 | Mean tumour volume ([2]; Day 31): 589 mm^3 | Median tumour volume ([2]; Day 31): 415 mm^3 | Individual tumour volume ([2]; Day 31): 1530 mm3 and 420 mm3 and 673 mm3 and 410 mm3 (2×) and 720 mm3 and 358 mm3 and 192 mm3 | Mean tumour volume ([2]; Day 35): 1176 mm^3 | Median tumour volume ([2]; Day 35): 986 mm^3 | Individual tumour volume ([2]; Day 35): 2706 mm3 and 699 mm3 and 1200 mm3 and 1008 mm3 and 1653 mm3 and 965 mm3 and 823 mm3 and 351 mm3 | Mean tumour volume ([2]; Day 41): 1390 mm^3 | Median tumour volume ([2]; Day 41): 1309 mm^3 | Individual tumour volume ([2]; Day 41): 1064 mm3 and 2380 mm3 and 1309 mm3 and 1389 mm3 and 2269 mm3 and 884 mm3 and 437 mm3 | Individual tumour volume ([2]; Day 45): 1632 mm3 and 2040 mm3 and 2112 mm3 and 1197 mm3 and 798 mm3 | Individual tumour volume ([2]; Day 48): 1536 mm3 and 1323 mm3 and 1232 mm3 | Individual tumour volume ([2]; Day 51): 2166 mm3 and 2112 mm3 and 1348 mm3 | Individual tumour volume ([2]; Day 55): 2132 mm3 | Anti-tumour activity (in words) ([2]; paclitaxel study): modest inhibition of tumour growth

N.N.O=C([O-])C1(C(=O)[O-])CCC1.[Pt+2] [carboplatin, reference compound]
Individual tumour volume [3, 6]: 53 mm^3 and 142 mm^3 and 61 mm^3 and 102 mm^3 and 90 mm^3 and 72 mm^3 and 81 mm^3 and 70 mm^3 and 114 mm^3 | Mean tumour volume [3, 6]: 87 mm^3 | Median tumour volume [3, 6]: 81 mm^3 | Individual tumour volume ([3]; D14): 104 mm^3 and 210 mm^3 (2×) and 162 mm^3 and 126 mm^3 and 123 mm^3 and 75 mm^3 and 134 mm^3 and 168 mm^3 | Mean tumour volume ([3]; D14): 146 mm^3 | Median tumour volume ([3]; D14): 134 mm^3 | Individual tumour volume ([3]; D18): 98 mm^3 and 173 mm^3 and 112 mm^3 (2×) and 336 mm^3 and 248 mm^3 and 140 mm^3 and 90 mm^3 (2×) | Mean tumour volume ([3]; D18): 155 mm^3 | Median tumour volume ([3]; D18): 112 mm^3 | Individual tumour volume ([3]; D22): 378 mm^3 and 126 mm^3 and 360 mm^3 and 324 mm^3 and 363 mm^3 and 270 mm^3 and 156 mm^3 and 198 mm^3 and 168 mm^3 | Mean tumour volume ([3]; D22): 260 mm^3 | Median tumour volume ([3]; D22): 270 mm^3 | Individual tumour volume ([3]; D25): 140 mm^3 and 240 mm^3 and 270 mm^3 and 616 mm^3 and 152 mm^3 and 358 mm^3 and 98 mm^3 and 243 mm^3 and 210 mm^3 | Mean tumour volume ([3]; D25): 258 mm^3 | Median tumour volume ([3]; D25): 240 mm^3 | Individual tumour volume ([3]; D29): 270 mm^3 and 200 mm^3 and 360 mm^3 (2×) and 768 mm^3 and 363 mm^3 and 168 mm^3 and 420 mm^3 | Mean tumour volume ([3]; D29): 344 mm^3 | Median tumour volume ([3]; D29): 360 mm^3 | Individual tumour volume ([3]; D32): 351 mm^3 and 243 mm^3 and 578 mm^3 and 864 mm^3 and 653 mm^3 and 504 mm^3 and 220 mm^3 and 462 mm^3 | Mean tumour volume ([3]; D32): 461 mm^3 | Median tumour volume ([3]; D32): 462 mm^3 | Individual tumour volume ([3]; D36): 630 mm^3 and 424 mm^3 and 1148 mm^3 and 1610 mm^3 and 893 mm^3 and 462 mm^3 and 308 mm^3 and 774 mm^3 | Mean tumour volume ([3]; D36): 760 mm^3 | Median tumour volume ([3]; D36): 630 mm^3 | Individual tumour volume ([3]; D39): 660 mm^3 and 484 mm^3 and 1134 mm^3 and 1495 mm^3 and 1488 mm^3 and 447 mm^3 and 347 mm^3 and 910 mm^3 and 423 mm^3 | Mean tumour volume ([3]; D39): 821 mm^3 | Median tumour volume ([3]; D39): 660 mm^3 | Individual tumour volume ([3]; D43): 864 mm^3 and 592 mm^3 and 1881 mm^3 and 2112 mm^3 and 2038 mm^3 and 882 mm^3 and 438 mm^3 and 1105 mm^3 and 672 mm^3 | Mean tumour volume ([3]; D43): 1176 mm^3 | Median tumour volume ([3]; D43): 882 mm^3 | Individual tumour volume ([3]; D46): 1071 mm^3 and 501 mm^3 and 2205 mm^3 and 810 mm^3 and 378 mm^3 and 1450 mm^3 and 878 mm^3 | Individual tumour volume ([3]; D49): 1568 mm^3 and 819 mm^3 and 1125 mm^3 and 480 mm^3 and 1650 mm^3 and 980 mm^3 | Anti-tumour activity (in words) [3]: anti-tumour effect; also recorded: exerts anti-tumour activity | Anti-tumour activity (in words) ([3]; listed as Carboplatin): significant anti-tumour activity | T/C ratio ([3]; relative to Control group, D11 (before treatment)): 89% | T/C ratio ([3]; relative to Control group, D14): 82% | T/C ratio ([3]; relative to Control group, D18): 52% | T/C ratio ([3]; relative to Control group, D22): 69% | T/C ratio ([3]; relative to Control group, D25): 54% | T/C ratio ([3]; relative to Control group, D29): 56% | T/C ratio ([3]; relative to Control group, D32): 45% | T/C ratio ([3]; relative to Control group, D36): 40% | T/C ratio ([3]; relative to LFB-R565 group, D11 (before treatment)): 100% | T/C ratio ([3]; relative to LFB-R565 group, D14): 87% | T/C ratio ([3]; relative to LFB-R565 group, D18): 65% | T/C ratio ([3]; relative to LFB-R565 group, D22): 100% | T/C ratio ([3]; relative to LFB-R565 group, D25): 59% | T/C ratio ([3]; relative to LFB-R565 group, D29): 52% | T/C ratio ([3]; relative to LFB-R565 group, D32): 67% | T/C ratio ([3]; relative to LFB-R565 group, D36): 35% | Individual body weight of the mice ([4]; D11 (Sep. 19, 2011)): 22.3 (2×) and 25.8 and 23.0 and 27.1 and 23.3 and 24.5 and 22.7 and 20.4 | Individual body weight of the mice ([4]; D18 (Sep. 26, 2011), in g (unit assumed)): 22.2 and 24.6 and 22.6 and 26.1 and 24.4 and 25.4 and 23.6 and 20.3 and 22.0 | Individual body weight of the mice ([4]; D25 (Oct. 3, 2011)): 27.6 and 28.3 and 25.6 (2×) and 32.7 and 27.0 and 29.4 and 24.2 and 26.0 | Individual body weight of the mice ([4]; D32 (Oct. 10, 2011)): 23.7 and 24.5 and 23.6 (2×) and 28.0 and 23.1 (2×) and 21.1 and 20.2 | Individual body weight of the mice ([4]; D39 (Oct. 17, 2011), in g (unit assumed)): 24.3 and 23.9 and 25.1 and 27.2 and 25.4 and 22.4 and 20.0 and 21.0 and 23.3 | Individual body weight of the mice ([4]; D46 (Oct. 24, 2011)): 25.4 and 25.7 (2×) and 26.4 and 21.7 and 21.0 and 25.0 | Mean body weight of the mice ([4]; Day 11 (before treatment)): 23.5 g | Mean body weight of the mice ([4]; Day 18): 23.5 g | Mean body weight of the mice ([4]; Day 25): 27.4 g | Mean body weight of the mice ([4]; Day 32): 23.4 g | Mean body weight of the mice ([4]; Day 39): 23.6 g | Effect on body weight / toxic effect (in words) ([4]; carboplatin study): not regarded as a toxic effect | Decrease in body weight ([4]; on D32 in comparison with D25, after the third injection of carboplatin): about 15%
